This note sets out measurements from patent US20170281611A1, “QUINOLINES AND THEIR USE FOR TREATING ENDOPLASMIC RETICULUM STRESS-CAUSED DISEASES” (EIGER BIOPHARMACEUTICALS, INC., priority 2014, published 2017).

Structures are written as SMILES. Read-outs that look alike come from different tables or passages of the source.

Data set [1] has as its system MCF10A Cells. Put plainly: In vitro viability, monolayers (2D) and spheroids (3D), normal breast tissue cells. The data set is classed as cell-based. The following applies: Homo sapiens, MCF-10A. As to the method:
(§1) The anticancer activity of a test compound was determined in vitro using mammalian tumor cells that grew as monolayers and spheroids. Spheroids represent the three-dimensional growth and organization of solid tumors, and thus are an intermediate model between monolayers of cells in culture and tumors in vivo. The cancer cell line tested was a breast cancer cell line, BT474. Normal breast tissue cells (MCF10A) were used as a control. The viability/proliferation of the cells were measured using […]-GLO® reagent.

The nature of data set [2]: Pharmacokinetics in Sprague Dawley rats (Table 4). The settings on record: rat; for MRT inf: read-out: MRT0-∞. It counts as in vivo. An excerpt:
Compound D1 was formulated in 0.3% DMA/1% SOLUTOL®/98.7% saline. Compound D6 was formulated in 0.5% DMA/1% SOLUTOL®/94.5% 0.01N HCl in saline/4% NaOH (pH 4-5).

Data set [3] relates to CSM14.1 cells. Put plainly: ER stress cell survival assay (thapsigargin, […]-GLO). It counts as cell-based. The settings on record: dose-response. As to the method: CSM14.1 cells were maintained in Complete Medium at 32° C.; wherein the Complete Medium contained Dulbecco's modified eagle medium (DMEM) with 10% fetal bovine serum (FSB), 1% L-glutamine, 100 IU/mL penicillin, and 100 μg/mL streptomycin. The cells were recovered from cultures by trypsinization and then seeded in 384 well plates (Greiner #781098) at a concentration of 1,000 cells/well in 20 μL of DMEM Assay Medium, wherein the DMEM Assay Medium contained 2% FBS, 100 IU/mL penicillin, and 100 μg/mL streptomycin. Seeding was performed using a MultiDrop Combi reagent broadcaster. The plates were incubated overnight at 32° C.
A test compound was prepared by 2-fold serial dilution in 100% DMSO using a BIOMEK® 2000 liquid handler (Beckman Coulter). A dose-response curve containing 10 concentrations of the test compound was obtained. Using a BIOMEK® FX liquid handler (Beckman Coulter), 2.5 μL of the test compound was transferred from the 100% DMSO serial dilution plate to an intermediate plate containing 47.5 μL of DMEM Assay Medium containing 2% FBS, 100 IU/mL penicillin, and 100 μg/mL streptomycin and mixed. To reduce or eliminate the interference from the compound's precipitation, 6 μL of the diluted compound was immediately transferred to the assay plate to achieve a high compound concentration of 100 μM in 99% DMEM Assay Medium and 1% DMSO. After the assay plates were incubated for 2 hrs, 4 μL of 112.5 μM thapsigargin (TG) (DMSO stock diluted into Assay TC Medium) was dispensed into each testing well with a MultiDrop Combi reagent broadcaster for a final concentration of about 15 μM TG. The tissue culture media (4 μL) containing vehicle only was transferred manually to each control cell using a 16 channel electronic pipette. […] High luminescence indicates cell survival.
Alternatively, a test compound was tested at a single compound concentration (e.g., 2 μM) to determine the effect of the compound on cell survival in comparison with vehicle.

In data set [4] the test system is human foreskin fibroblast (HFF) cells. Put plainly: Toxicity in human foreskin fibroblast cells. It counts as cell-based. The settings on record: 100 μM.
In data set [5] the test system is BT474 Cells. Put plainly: In vitro anticancer activity, monolayers (2D) and spheroids (3D), BT474. The data set is classed as cell-based. The following applies: Homo sapiens. As to the method:
as §1

Data set [6] is described as follows: Pharmacokinetics in Beagle dogs (Table 5). The data set is classed as in vivo. The following applies: dog; for MRT inf: read-out: MRT0-∞. As to the method:
For pharmacokinetic evaluation, 3 male Beagle dogs were intravenously (IV) dosed (1 mg/kg body weight) and 3 male Beagle dogs were orally (PO) dosed (10 mg/kg body weight) with a test compound. Blood (approximately 1.0 mL) was collected via femoral vein into tubes containing K3EDTA anticoagulant at 0, 0.017, 0.083, 0.5, 1, 2, 4, 6, 8, and 24 hours post-dosing. Plasma samples were analyzed by LC-MS/MS. The analytical results were confirmed using quality control samples for intra-assay variation. The accuracy of >66% of the quality control samples was between 80-120% of the known value(s). A standard set of pharmacokinetic parameters were generated from concentration data including Area Under the Curve (AUC0-t and AUC0-inf), elimination half-lives, clearances, volume of distribution and bioavailabilities (based on AUC0-t), maximum plasma concentration (C0; Cmax), and time to reach maximum plasma concentration (Tmax).

Data set [7] relates to 6-OHDA lesioned Wistar rats. The data set is described as follows: Rat unilateral 6-OHDA model of Parkinson's disease, cylinder test. It counts as in vivo. The following applies: D11, L-DOPA 8 mg/kg with benserazide 12.5 mg/kg IP once; 6-OHDA/Vehicle 23.17±6.45. As to the method: (§2) Fifty adult male Wistar rats were used. The rats from different groups (G1 to G5) were randomized. At the beginning of the study, the rats were about 5 weeks old and naive to previous administration of any drug.
(§3) A stereotaxic injection of 6-OHDA (G2 to G5) or saline (G1: sham group) was performed to induce a unilateral dopaminergic lesion on day 0 (D0). Surgery was performed on D0 under ketamine (50 mg/kg) and xylazine (10 mg/kg). The rats of G2 to G5 received a unilateral injection of 6-OHDA (6 μL) in the left substantia nigra pars compacta. Jouve et al., J. Neurosci. 2010, 30, 9919-9928. The rats of the G1 sham group were injected with saline. During surgery, local analgesia was achieved using subcutaneous injections of lidocaine. At the end of surgery, the rats were treated with buprenorphine (0.05 mg/kg, S.C.).
The cylinder test was performed only on D11, after completion of the IT and stepping tests, and 1.5 hours after the rats were dosed. The rats were placed in a Plexiglas cylinder and immediately videotaped for 15 min. During this time, the number of contacts made on the cylinder wall with the ipsilateral, contralateral, and two paws simultaneously (double contacts) were recorded and then expressed as a percentage of the total number of contacts. Lundblad et al., Eur. J. Neurosci. 2002, 15, 120-132; Jouve et al., J. Neurosci. 2010, 30, 9919-9928. […]

For data set [8], the system named is 6-OHDA lesioned Wistar rats. Put plainly: Rat unilateral 6-OHDA model of Parkinson's disease, stepping test. The data set is classed as in vivo. The following applies: D11, L-DOPA 8 mg/kg with benserazide 12.5 mg/kg IP once; 6-OHDA/Vehicle 1.19±0.24 steps. As to the method: as §2, §3
The stepping test was performed after IT test, both before the 6-OHDA lesion induction on D0 and on D11. Around D−6, the stepping test was performed eight consecutive times for the right paw of each animal to obtain baseline values. On D11, the stepping test was performed one hour after the rats were dosed. Each rat was hold by an experimenter and only one of the two forelimbs was left free to move above a plane surface and the other was held with the paw touching the table. The rats were then to be moved slowly forward by the experimenter. The number of adjusting steps was countered for the right paw. Olsson et al., J. Neurosci. 1995, 15, 3863-3875.
L-DOPA and benserazide (a peripheric DOPA decarboxylase inhibitor) were prepared together as a single solution containing 0.9% NaCl and 0.1% ascorbic acid.
All the dosings were given via the IP route, once daily, Sunday excluded.

Data set [9] has as its system 6-OHDA lesioned Wistar rats. Put plainly: Rat unilateral 6-OHDA model of Parkinson's disease, initiation time (IT) test. It counts as in vivo. The following applies: D11, L-DOPA 8 mg/kg with benserazide 12.5 mg/kg IP once; 6-OHDA/Vehicle 37.88±6.10 sec. As to the method: as §2, §3
The IT test was performed both before the 6-OHDA lesion induction on D0 and on day 11 (D11) after the 6-OHDA lesion induction. Around six days (D−6) before the 6-OHDA lesion induction, the IT test was performed eight consecutive times for each limb of each rat to obtain baseline values. On D11, the IT test was performed one hour after the rats were dosed. For every test, only one of the two forelimbs of each rat was left free to move and the time that is necessary to initiate the movement toward a plane surface was recorded using 180 sec as break-off point. […]

[10] abbreviates: Sprague Dawley, in vivo, IV (2 mg/kg).
Where [11] appears, read: Sprague Dawley, in vivo, PO (10 mg/kg).
The mark [12] stands for this setting: male, Beagle, plasma, IV (1 mg/kg).
[13] abbreviates: male, Beagle, plasma, PO (10 mg/kg).

With `O=C(c1ccc(N2CCCC2)c([N+](=O)[O-])c1)N1CCN(c2ccnc3cc(Cl)ccc23)CC1` [Compound D6, (4-(7-Chloroquinolin-4-yl)piperazin-1-yl)(3-nitro-4-(pyrrolidin-1-yl)phenyl)methanone], the IC50 in data set [1] (monolayers (2D), read-out: IC50 (2D)) is more than 50 µM; in data set [1] (spheroids (3D), read-out: IC50 (3D)) it was more than 50 µM; in data set [5] (BT-474, monolayers (2D), read-out: IC50 (2D)), 5 µM; in data set [5] (BT-474, spheroids (3D), read-out: IC50 (3D)) it was 8 µM. For the same compound, the AUC(0-inf) in data set [2] (setting [10]) amounted to 8640 ± 650 ng·h/mL; in [2] (setting [11]), 21200 ± 1940 ng·h/mL; in data set [6] (setting [12]) it was 14300 ± 2220 ng·h/mL; in [6] (setting [13]) it was 114000 ± 15500 ng·h/mL. The AUC(0-t) in data set [2] (setting [10]) came out at 8600 ± 659 ng·h/mL; in [2] (setting [11]) it was 19900 ± 1510 ng·h/mL; in data set [6] (setting [12]), 13900 ± 2100 ng·h/mL; in data set [6] (setting [13]), 110000 ± 15500 ng·h/mL. Also, the Cmax in [2] (setting [10]) worked out at 39.7 ± 1.06 µM; in [2] (setting [11]) it was 13 ± 3.56 µM; in data set [6] (setting [12]), 12.7 ± 2.4 µM; in data set [6] (setting [13]), 26.5 ± 1.9 µM. In addition, the Tmax came out at 0.02 h in data set [2] (setting [10]), 0.42 ± 0.14 h in data set [2] (setting [11]), 0.02 h in data set [6] (setting [12]) and 0.83 ± 0.29 h in data set [6] (setting [13]). Also, the clearance was 3.83 mL/min/kg in data set [2] (setting [10]) and 1.17 mL/min/kg in data set [6] (setting [12]). In addition, the half-life in [2] (setting [10]) was 0.98 ± 0.13 h; in [2] (setting [11]) it was 1.79 ± 0.39 h; in data set [6] (setting [12]), 4.8 ± 0.4 h; in data set [6] (setting [13]) it was 4.8 ± 0.6 h. For the same compound, the MRT inf was 0.98 ± 0.09 h in [2] (setting [10]), 2.96 ± 0.66 h in data set [2] (setting [11]), 5.6 ± 0.4 h in [6] (setting [12]) and 7 ± 0.3 h in data set [6] (setting [13]). Moreover, the Vd in data set [2] (Sprague Dawley, in vivo, IV (2 mg/kg), read-out: Vz) stood at 0.33 ± 0.03 L/kg; in data set [6] (male, Beagle, plasma, IV (1 mg/kg), read-out: Vz), 0.49 ± 0.04 L/kg. Moreover, the F was determined as 44% in data set [2] (PO (10 mg/kg) vs IV (2 mg/kg)) and 82% in [6] (PO (10 mg/kg) vs IV (1 mg/kg), based on AUC0-t). For the same compound, the EC50 in data set [3] is less than 20 µM. The “toxicity in HFF cells” value in data set [4] is reported as “no toxicity”.

On to `N[C@@H](Cc1ccc(O)c(O)c1)C(=O)O` [L-DOPA, reference compound], for which the “percentage of double contacts” value in data set [7] is 46.67±4.60 double contacts. Further, the “number of adjusting steps” value in data set [8] amounted to 10.05±0.56 steps. Moreover, the initiation time in [9] is 1.28 ± 0.21 s.
